The values that follow come from ChEMBL document CHEMBL1201862, “PubChem BioAssay data set” (2004).

Some test systems named below: BT-549; CAKI-1; DU-145; Hs-578T; K562; LOX IMVI; M14; MDA-MB-435; SF-268; SF-539; SK-MEL-28; SK-MEL-5; SNB-75; A549; NCI-H460; RXF 393; SK-MEL-2; PC-3.
Common to all, as to assay: NCI anticancer screen, dose series, 48 h

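Briefly, cells in 96-well plates were exposed to five compound concentrations for 48 h, and endpoints were estimated by linear interpolation. At the GI50, growth is halved.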 Active and inactive are the calls of the source. Cut-off read from the data, not from the text of the source: active = GI50 up to about 1.1 µM and inactive = higher. A value given as a limit tells only on which side of the number the result lay.

In the case of `C=CC[C@@H]1C=C[C@@H](C(=O)OC)n2c(=O)n(-c3ccccc3)c(=O)n21`, the GI50 in the experiment with BT-549, in the experiment with CAKI-1, with DU-145, with Hs-578T, in the experiment on K562 and in the experiment with LOX IMVI was > 100 µM (inactive) in each case. Further, the GI50 in the experiment on M14, with MDA-MB-435, in the experiment with SF-268, with SF-539, in the experiment on SK-MEL-28 and with SK-MEL-5 was > 100 µM (inactive) throughout. Moreover, the GI50 in the experiment with SNB-75 is > 100 µM (inactive).
`COCCOc1cc(C)cc(/C=C(C)/C=C/C2=C(C)CCCC2(C)C)n1`: the GI50 with A549 was 51.9 µM (inactive); in the experiment with CAKI-1, > 100 µM (inactive); with LOX IMVI it was 54.8 µM (inactive); in the experiment on M14, 94 µM (inactive); in the experiment with NCI-H460, 88.7 µM (inactive); with RXF 393, 39.7 µM (inactive). Further, the GI50 was > 100 µM (inactive) in the experiment on SF-268; > 100 µM (inactive) in the experiment on SF-539; > 100 µM (inactive) in the experiment on SK-MEL-28; 49 µM (inactive) in the experiment with SK-MEL-2; 17.3 µM (inactive) in the experiment with SK-MEL-5; > 100 µM (inactive) in the experiment on SNB-75.
`NC(=S)c1cccc(C2Nc3ccccc3O2)c1` (stereo unspecified): the GI50 in the experiment with A549 was 41.5 µM (inactive); in the experiment with CAKI-1, > 100 µM (inactive); with DU-145, > 100 µM (inactive); with Hs-578T, > 100 µM (inactive); with K562, 30.5 µM (inactive); in the experiment on M14, > 100 µM (inactive). In addition, the GI50 is 43 µM (inactive) in the experiment with MDA-MB-435; 49.2 µM (inactive) in the experiment with NCI-H460; 51.2 µM (inactive) in the experiment with PC-3; > 100 µM (inactive) with RXF 393; > 100 µM (inactive) with SF-268; 61.1 µM (inactive) in the experiment with SF-539. The GI50 in the experiment on SK-MEL-28 was > 100 µM (inactive); in the experiment with SK-MEL-2 it was > 100 µM (inactive); with SK-MEL-5, 23.5 µM (inactive); in the experiment on SNB-75, > 100 µM (inactive).
For the compound `O=C1c2ccccc2NC(=O)C2C1C(c1ccccc1)CC2(O)c1ccccc1` (stereo unspecified), the GI50 was 30 µM (inactive) in the experiment on A549; 78 µM (inactive) in the experiment on CAKI-1; > 100 µM (inactive) in the experiment with DU-145; 34.5 µM (inactive) with Hs-578T; 43.2 µM (inactive) with LOX IMVI; 60.5 µM (inactive) in the experiment with M14. Moreover, the GI50 was > 100 µM (inactive) with MDA-MB-435; 34.7 µM (inactive) in the experiment on NCI-H460; 18 µM (inactive) in the experiment with PC-3; 80.9 µM (inactive) in the experiment with RXF 393; > 100 µM (inactive) with SF-268; > 100 µM (inactive) with SF-539. For the same compound, the GI50 with SK-MEL-28 is > 100 µM (inactive); in the experiment with SK-MEL-2 it was 21.9 µM (inactive); in the experiment with SK-MEL-5, 84.5 µM (inactive); in the experiment on SNB-75, 0.0128 µM (active).
As to `C[n+]1c(-c2ccc(/C=N/NC(=N)N/N=C/c3ccc(-c4cn5cc(Cl)ccc5[n+]4C)cc3)cc2)cn2cc(Cl)ccc21`, the GI50 in the experiment with A549, in the experiment with Hs-578T, with K562, in the experiment with M14, with MDA-MB-435 and with NCI-H460 was > 100 µM (inactive) in each case. The GI50 in the experiment on PC-3, in the experiment with SF-268, with SF-539, in the experiment with SK-MEL-28, with SK-MEL-5 and with SNB-75 was > 100 µM (inactive) throughout.
For `CCOC(=O)C(=O)Nc1ccccc1OCC`, the GI50 in the experiment with A549, in the experiment on CAKI-1, in the experiment with K562, with LOX IMVI, in the experiment with M14 and in the experiment on NCI-H460 was > 100 µM (inactive) each time. Also, the GI50 in the experiment on RXF 393, in the experiment with SF-268, in the experiment on SF-539, with SK-MEL-28, in the experiment with SK-MEL-2 and in the experiment with SK-MEL-5 was > 100 µM (inactive) throughout.
